Each structure is given as a SMILES string. Numbering of substitutions follows the chain as printed.

Assay [1] deals with T1, Receptor-type tyrosine-protein kinase FLT3 (Homo sapiens), P36888 [N841I].
T1 sequence (whole entry): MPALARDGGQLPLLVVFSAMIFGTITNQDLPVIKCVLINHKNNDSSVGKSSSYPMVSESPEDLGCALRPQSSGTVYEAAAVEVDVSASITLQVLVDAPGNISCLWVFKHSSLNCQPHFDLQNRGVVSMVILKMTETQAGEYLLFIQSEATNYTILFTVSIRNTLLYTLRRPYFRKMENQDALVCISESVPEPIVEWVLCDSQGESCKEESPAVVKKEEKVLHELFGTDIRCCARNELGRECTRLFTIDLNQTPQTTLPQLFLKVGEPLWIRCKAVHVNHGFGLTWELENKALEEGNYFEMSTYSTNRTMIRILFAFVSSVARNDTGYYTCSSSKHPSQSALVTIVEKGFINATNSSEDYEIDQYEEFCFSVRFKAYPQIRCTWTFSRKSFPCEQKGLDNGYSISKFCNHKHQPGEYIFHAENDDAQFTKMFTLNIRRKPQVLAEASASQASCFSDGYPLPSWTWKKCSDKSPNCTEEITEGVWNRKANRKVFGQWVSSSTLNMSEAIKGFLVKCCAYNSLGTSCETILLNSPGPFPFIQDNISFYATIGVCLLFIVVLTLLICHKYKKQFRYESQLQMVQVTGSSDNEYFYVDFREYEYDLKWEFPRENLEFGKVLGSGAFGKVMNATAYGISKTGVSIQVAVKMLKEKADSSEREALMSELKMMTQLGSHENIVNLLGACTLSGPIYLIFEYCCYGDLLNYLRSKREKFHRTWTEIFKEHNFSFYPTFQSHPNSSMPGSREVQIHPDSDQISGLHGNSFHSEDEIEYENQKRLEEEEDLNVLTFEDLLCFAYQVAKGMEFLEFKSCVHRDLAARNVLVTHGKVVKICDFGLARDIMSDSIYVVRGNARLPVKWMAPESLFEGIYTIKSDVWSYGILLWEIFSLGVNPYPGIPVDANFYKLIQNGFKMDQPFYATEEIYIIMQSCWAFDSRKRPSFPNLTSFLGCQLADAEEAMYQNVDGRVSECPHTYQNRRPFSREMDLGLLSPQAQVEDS
Put plainly: (§1) Selectivity interaction (KinomeScan (DiscoverX)) EUB0000229b FLT3. The conditions noted are these: at 1 µM.

For assay [2], the target named is Receptor-type tyrosine-protein kinase FLT3 (Homo sapiens) (UniProt P36888). Described as §1. The note with it: at 10 µM.
The subject of assay [3] is T2, Receptor-type tyrosine-protein kinase FLT3 (Homo sapiens), P36888 [K663Q].
T2 sequence (whole entry): T1 sequence (whole entry) with K663Q, I841N
The description is as §1. The conditions noted are these: at 1 µM.

Assay [4] has as its system T3, Receptor-type tyrosine-protein kinase FLT3 (Homo sapiens), P36888 [R834Q].
T3 sequence (whole entry): T1 sequence (whole entry) with R834Q, I841N
Described as §1. The conditions noted are these: at 1 µM.

In the case of `COc1cc(N(C)c2ccnc3ccc(C(F)(F)F)cc23)cc(OC)c1OC`, the % binding in assay [1] was 84%; in assay [2], 78%; in assay [3], 76%; in assay [4], 100%.
